Measured values taken from patent US20250186396A1, “COMPOSITIONS AND METHODS FOR THE TREATMENT OF GLIOBLASTOMA WITH A DUAL TARGETING ANTI-TUMOR COMPOSITION” (Northwestern University, priority 2023, published 2025).

Legend:
CT2A tumors = assay: Immunofluorescence staining of CT2A tumors; format: in vivo, C57BL/6 mice; details: for intratumoral CD4+ T cells / intratumoral CD8+ T cells / intratumoral activated CD8+ (CD8+CD69+) T cells: CT2A model, BAPN 2 g/L in drinking water from day 4, SR9009 100 mg/kg i.p. daily for 10 days from day 7; for CX3CR1+ microglia in tumors / F4/80+ macrophages in tumors: CT2A tumors vs control, BAPN 2 g/L drinking water or SR9009 100 mg/kg i.p. daily 10 days
Method: Mice and Intracranial Xenograft Tumor Models. Female C57BL/6 mice at 3 to 4 weeks of age were purchased from the Jackson Laboratory (#0000664). All animals were grouped by 5 mice per cage and maintained in IVC System (San Diego, CA) for a week before the experiment. All animal experiments were performed with the approval of the Institutional Animal Care and Use Committee (IACUC) at Northwestern University. The intracranial xenograft tumor models were established previously. In brief, mice were anesthetized by isoflurane through IMPAC6 Anesthesia System. Then a dental drill was used to open a small hole in the skull of mice 1.2 mm anterior and 3.0 mm lateral to the bregma. Mice were placed into the stereotactic apparatus, and 5 μL 005 GSC, CT2A, or GL261 cells in FBS-free culture medium were injected into the right caudate nucleus 3 mm below the surface of the brain using a 10 μL Hamilton syringe with an unbeveled 30-gauge needle. The incision was closed using Vetbond glue. Meloxicam (20 mg/kg, daily) was subcutaneously injected for pain relief for 3 days after surgery. Mice received the treatment with BAPN (2 g/L in drinking water) on day 4, SR9009 (100 mg/kg body weight, i.p.) daily for 10 days beginning at day 7 post-orthotopic injection, anti-PD1 (10 mg/kg body weight, i.p.) on days 11, 14, and 17 post-orthotopic injection, and/or clodronate liposomes (200 μL, once every 3 days) starting at day 4 post-orthotopic injection. Mice with neurological deficits or moribund appearance were sacrificed according to the IACUC protocol. At the end of the experiment, the brains of mice were collected, either fixed in 4% paraformaldehyde (PFA) (ThermoFisher Scientific, #J61899.AK) after transcardiac perfusion with PBS for optimal cutting temperature (OCT)-cryosectioning or processed using the percoll density gradient cell separation method to isolate tumor-derived immune cells for flow cytometry analysis.
Immunofluorescence. Immunofluorescence was performed using a standard protocol that was previously established. In brief, slides from cryosections were kept at room temperature for 30 minutes and fixed in 10% PFA for 30 minutes prior to permeabilization. Then, 0.25% Triton X-100 in PBS was added for 30 minutes at room temperature to permeabilize the cell membrane. After three times PBS washing, sections were blocked by 5% goat serum for 30 minutes. Specimens were incubated with primary antibody for 1 hour at room temperature and then overnight at 4° C. Then, the unbound primary antibodies were washed out by three times PBS for 3 minutes each and corresponding secondary antibody cocktails were prepared and added to the sections for 1 hour incubation. Cell nuclear was counterstained with DAPI/anti-fade mounting medium (Vector Laboratories, #H-1200-10). Immunofluorescence images were captured using Nikon AX/AX R Confocal Microscope System with an apo 60 1.40 Oil 160/0.17 objective in the Center for Advanced Microscopy (CAM) at Northwestern University. The relative intensity of the protein signal was determined by Image J. For one slide, 3-5 fields of images were captured randomly, and the intensity of the protein signal was determined by Image J. The average quantified value of these 3-5 fields was represented as the protein signal intensity of one sample and presented as the individual point in the bar graph. Antibodies specific to CD8 (Invitrogen, #PA5-81344), CD69 (Santa Cruz Biotechnology, #sc-373799), CX3CR1 (Invitrogen, #702321), F4/80 (Cell Signaling Technology, #30325S), OLFML3 (Invitrogen, #702321), Ki67 (Cell Signaling Technology, #9129S), and CC3 (Cell Signaling Technology, #9661S) were used.

CT2A cells = assay: Survival of mice intracranially implanted with CT2A cells; format: in vivo, C57BL/6 mice; details: CT2A 2×10^4 cells/mouse; BAPN 2 g/L drinking water from day 4; SR9009 100 mg/kg i.p. 10 days from day 7; anti-PD1 10 mg/kg i.p. days 11, 14, 17; radiation 2.5 Gy 4 days from day 7
Method: (§1) Mice and Intracranial Xenograft Tumor Models. Female C57BL/6 mice at 3 to 4 weeks of age were purchased from the Jackson Laboratory (#0000664). All animals were grouped by 5 mice per cage and maintained in IVC System (San Diego, CA) for a week before the experiment. All animal experiments were performed with the approval of the Institutional Animal Care and Use Committee (IACUC) at Northwestern University. The intracranial xenograft tumor models were established previously. In brief, mice were anesthetized by isoflurane through IMPAC6 Anesthesia System. Then a dental drill was used to open a small hole in the skull of mice 1.2 mm anterior and 3.0 mm lateral to the bregma. Mice were placed into the stereotactic apparatus, and 5 μL 005 GSC, CT2A, or GL261 cells in FBS-free culture medium were injected into the right caudate nucleus 3 mm below the surface of the brain using a 10 μL Hamilton syringe with an unbeveled 30-gauge needle. The incision was closed using Vetbond glue. Meloxicam (20 mg/kg, daily) was subcutaneously injected for pain relief for 3 days after surgery. […]
(§2) Statistical analysis. […] The survival analysis for animal models was determined by conducting Log-rank (Mantel-Cox) test. […]

005 GSCs = assay: Survival of mice intracranially implanted with 005 GSCs; format: in vivo, C57BL/6 mice; details: 005 GSCs 2×10^5 cells/mouse; BAPN 2 g/L drinking water from day 4; SR9009 100 mg/kg i.p. 10 days from day 7; anti-PD1 10 mg/kg i.p. days 11, 14, 17; radiation 2.5 Gy 4 days from day 7
Method: as §1, §2

HMC3 microglia = assay: Transwell migration assay of HMC3 microglia with U87 conditioned media; format: cell-based; details: conditioned media from U87 cells pretreated with BAPN 200 μM; 10 hours
Method: (§3) Migration assay. To study the relationship between macrophages and microglia, HMC3 microglia or THP-1 macrophages were seeded into the 24-well plates (receiver wells) using serum-containing culture medium for 24 hours to reach 40-60% confluence and then stimulated with or without U87 cell CM for additional 24 hours. After that, cells were washed with PBS twice and cultured in serum-free culture medium. For upper chambers, THP-1 macrophages (2×10^5) and HMC3 microglia (5×10^4) were suspended in serum-free culture medium and seeded into […] (Corning, #3421) and […] (Corning, #3422) 24-well Transwell inserts, respectively. To study the role of GBM cells on microglia migration, HMC3 microglia (5×10^4) were suspended in serum-free culture medium and seeded into 8.0 μm inserts. SIM-A9 microglia (1×10^5) and THP-1 macrophages (1×10^5) were suspended in serum-free culture medium and seeded into 5.0 μm inserts. The CM from LOX-depleted or inhibited U87 cells, LOX-overexpressed GL261 cells, or SR9009-treated U87 cells were added to the receiver wells, respectively. After 10 hours, migrated cells were fixed with 4% PFA (ThermoFisher, #J61899.AK) for 30 minutes and stained with crystal violet (Sigma-Aldrich, #C-3886) for another 30 minutes. The membrane inserts were washed with water and imaged under an EVOS microscope. The number of transferred cells was counted using ImageJ.

THP-1 macrophages = assay: Transwell migration assay of THP-1 macrophages with U87 conditioned media; format: cell-based; details: conditioned media from U87 cells pretreated with SR9009 5 μM
Method: as §3

Structure (SMILES) | intratumoral CD4+ T cells (CT2A tumors) | intratumoral CD8+ T cells (CT2A tumors) | intratumoral activated CD8+ (CD8+CD69+) T cells (CT2A tumors) | CX3CR1+ microglia in tumors (CT2A tumors) | F4/80+ macrophages in tumors (CT2A tumors) | survival (CT2A cells) | survival (005 GSCs) | migration of HMC3 microglia (HMC3 microglia) | migration ability of THP-1 macrophages (THP-1 macrophages)
N#CCCN [BAPN, β-aminopropionitrile] | increased | increased | increased | higher | lower | extended the survival | extended the survival | increased the migration ability | 
CCOC(=O)N1CCC(CN(Cc2ccc(Cl)cc2)Cc2ccc([N+](=O)[O-])s2)C1 (centres unmarked) [SR9009] | increased | increased | increased | reduced | did not affect |  |  |  | did not change
